For data set [1], the target named is T1, Sodium channel protein type 9 subunit alpha (Homo sapiens, UniProt Q15858). The experiment in a line: Inhibition of human Nav1.7 channel expressed in HEK cells at 1 uM by FRET assay. The class given is cell-based. Conditions: HEK293.
Target sequence in this assay (Q15858 whole entry, looked up): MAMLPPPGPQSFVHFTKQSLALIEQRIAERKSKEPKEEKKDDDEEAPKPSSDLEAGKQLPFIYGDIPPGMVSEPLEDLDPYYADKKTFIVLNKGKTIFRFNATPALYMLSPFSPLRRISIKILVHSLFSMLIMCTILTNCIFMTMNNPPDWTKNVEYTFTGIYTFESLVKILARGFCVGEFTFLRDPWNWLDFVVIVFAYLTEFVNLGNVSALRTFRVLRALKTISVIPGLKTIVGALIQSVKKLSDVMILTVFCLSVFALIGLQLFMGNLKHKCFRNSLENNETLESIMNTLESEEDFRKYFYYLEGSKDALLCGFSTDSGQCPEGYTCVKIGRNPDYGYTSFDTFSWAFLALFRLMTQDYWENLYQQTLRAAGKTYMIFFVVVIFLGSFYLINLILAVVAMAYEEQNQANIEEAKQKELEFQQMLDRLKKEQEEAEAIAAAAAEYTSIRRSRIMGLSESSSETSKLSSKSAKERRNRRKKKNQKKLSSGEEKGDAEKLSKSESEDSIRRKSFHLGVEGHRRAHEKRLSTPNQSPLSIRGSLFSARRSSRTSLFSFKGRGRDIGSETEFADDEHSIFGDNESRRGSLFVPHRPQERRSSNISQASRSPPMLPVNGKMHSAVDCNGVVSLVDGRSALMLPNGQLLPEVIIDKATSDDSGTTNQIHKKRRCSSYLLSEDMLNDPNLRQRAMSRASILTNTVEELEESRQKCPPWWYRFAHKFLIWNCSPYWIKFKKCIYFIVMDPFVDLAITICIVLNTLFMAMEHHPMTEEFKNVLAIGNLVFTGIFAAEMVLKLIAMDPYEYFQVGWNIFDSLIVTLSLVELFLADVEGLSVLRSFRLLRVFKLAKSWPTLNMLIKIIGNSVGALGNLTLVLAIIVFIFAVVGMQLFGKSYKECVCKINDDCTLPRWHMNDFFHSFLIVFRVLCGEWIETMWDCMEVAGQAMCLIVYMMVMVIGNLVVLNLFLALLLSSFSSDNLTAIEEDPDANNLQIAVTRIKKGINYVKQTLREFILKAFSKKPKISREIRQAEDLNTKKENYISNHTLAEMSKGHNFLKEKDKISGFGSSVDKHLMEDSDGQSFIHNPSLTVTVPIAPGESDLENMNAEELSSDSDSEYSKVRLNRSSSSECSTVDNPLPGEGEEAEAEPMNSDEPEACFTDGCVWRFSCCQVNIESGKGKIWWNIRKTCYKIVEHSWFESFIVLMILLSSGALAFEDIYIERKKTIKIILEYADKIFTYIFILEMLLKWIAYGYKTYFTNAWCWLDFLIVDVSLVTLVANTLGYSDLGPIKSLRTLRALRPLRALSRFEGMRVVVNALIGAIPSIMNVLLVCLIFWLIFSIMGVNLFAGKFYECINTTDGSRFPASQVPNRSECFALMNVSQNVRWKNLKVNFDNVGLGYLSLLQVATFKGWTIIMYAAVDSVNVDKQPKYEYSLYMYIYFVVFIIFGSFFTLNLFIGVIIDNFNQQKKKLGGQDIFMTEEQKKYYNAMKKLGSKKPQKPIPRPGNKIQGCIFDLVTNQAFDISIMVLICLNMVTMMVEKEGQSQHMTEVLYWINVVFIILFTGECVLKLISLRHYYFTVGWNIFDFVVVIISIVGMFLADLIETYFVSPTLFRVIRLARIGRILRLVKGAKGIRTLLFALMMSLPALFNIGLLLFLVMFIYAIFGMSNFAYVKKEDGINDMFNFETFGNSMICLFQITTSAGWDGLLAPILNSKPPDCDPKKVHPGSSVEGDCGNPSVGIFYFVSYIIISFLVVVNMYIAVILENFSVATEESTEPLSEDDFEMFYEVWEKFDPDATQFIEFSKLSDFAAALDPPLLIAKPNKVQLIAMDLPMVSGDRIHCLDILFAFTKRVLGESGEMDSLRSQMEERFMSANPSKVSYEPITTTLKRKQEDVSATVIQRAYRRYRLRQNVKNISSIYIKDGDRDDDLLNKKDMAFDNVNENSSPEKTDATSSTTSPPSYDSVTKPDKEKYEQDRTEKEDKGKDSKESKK
Data set [2] deals with T1, Sodium channel protein type 9 subunit alpha. Nature of the data set: Inhibition of human Nav1.7 channel expressed in HEK cells by FRET assay. The class given is cell-based, HEK293.
Target sequence in this assay (Q15858 whole entry): as the sequence (Q15858 whole entry, looked up) above
The nature of data set [3]: Bioavailability in Sprague-Dawley rat. The class given is ADME, organism-based. Conditions: in vivo.
Data set [4] in a line: Half life in Sprague-Dawley rat. As to conditions: in vivo. The class given is ADME, organism-based.
A short description of data set [5]: Plasma clearance in Sprague-Dawley rat. The class given is ADME, organism-based.
The test system of data set [6] is Rattus norvegicus. The experiment in a line: Analgesic activity in Freund's complete adjuvant-induced rat pain model assessed as reversal of mechanic allodynia at 3 mg/kg, po after 2 hrs. The class given is functional.
The subject of data set [7] is Rattus norvegicus. Nature of the data set: Analgesic activity in Freund's complete adjuvant-induced rat pain model assessed as reversal of mechanic allodynia at 3 mg/kg, po after 3 hrs. The class given is functional.
Data set [8] has as its system Rattus norvegicus. Nature of the data set: Analgesic activity in spinal nerve ligation-induced rat neuropathic pain model assessed as reversal of allodynia at 10 mg/kg, po after 3 hrs. The class given is functional.
For data set [9], the system named is Rattus norvegicus. Nature of the data set: Analgesic activity in Freund's complete adjuvant-induced rat pain model assessed as reversal of mechanic allodynia at 10 mg/kg, po after 3 hrs. The class given is functional.

The term inhibition denotes the relative decrease from the control value, in per cent. A higher inhibition goes with a strong effect. The compound `CC1(c2ccccc2)CC([C@@H]2CCC[C@H]2C(=O)NCc2ccc(OC(F)(F)F)cc2)=NO1` (mixture of isomers) [listing 1 of 2 here] registered an inhibition in data set [1] of 63%.

The compound `CC1(c2ccccc2)CC([C@@H]2CCC[C@H]2C(=O)NCc2ccc(OC(F)(F)F)cc2)=NO1` (relative stereo) [listing 1 of 2 here] had an inhibition in data set [1] of 35%.

Broadly, the IC50 is the concentration needed to halve the response being measured. As a reminder, the bioavailability is the share of a dose that reaches the circulation, judged against a reference dose that is usually intravenous. High values mean good availability, low ones poor availability. Usually half-life stands for how long it takes for the measured level to halve. Usually clearance stands for the rate of elimination divided by the concentration. In [2], `CC1(c2ccccc2)CC([C@@H]2CCC[C@H]2C(=O)NCc2ccc(OC(F)(F)F)cc2)=NO1` (mixture of isomers) [listing 2 of 2 here] came in with a half-maximal inhibitory concentration (IC50) of 620 nM. The bioavailability in [3] was 16%. This compound also showed a half-life in data set [4] of 2.9 h. The clearance in [5] was found to be 17.8 mL/min/kg. Further, the Activity is 20% in data set [6] and 48% in data set [7] (3 mg/kg).

Turning to `O=C(NCc1ccc(OC(F)(F)F)cc1)[C@@H]1CCC[C@H]1C1=NOC(c2ccc(Cl)cc2)C1` (mixture of isomers), the IC50 in [2] is 430 nM. In data set [1], this compound showed an inhibition of 92%.

In data set [1], `CC1(c2ccccc2)CC([C@@H]2CCC[C@H]2C(=O)NCc2ccc(OC(F)(F)F)cc2)=NO1` (single isomer, unassigned; diastereomer a) [listing 1 of 2 here] showed an inhibition of 64%.

Take `COC(=O)c1ccc(C2CC([C@@H]3CCC[C@H]3C(=O)NCc3ccc(OC(F)(F)F)cc3)=NO2)cc1` (mixture of isomers): the half-inhibitory concentration (IC50) in data set [2] was found to be 340 nM. Further, the inhibition in data set [1] was found to be 87%.

With `O=C(NCc1ccc(OC(F)(F)F)cc1)[C@@H]1CCC[C@H]1C1=NOC(c2ccccc2)C1` (mixture of isomers), the concentration for half-maximal inhibition (IC50) in data set [2] is 780 nM. The compound also came in with an inhibition in [1] of 76%.

`Clc1cc(Cl)cc(C2CC([C@@H]3CCC[C@H]3c3cc(-c4ccccc4)on3)=NO2)c1` (mixture of isomers) came in with an inhibition in [1] of 35%.

For the compound `CC1(c2ccccc2)CC([C@@H]2CCC[C@H]2C(=O)NCc2ccc(OC(F)(F)F)cc2)=NO1` (single isomer, unassigned; diastereomer b) [listing 1 of 2 here], in [1], the inhibition is 37%.

As for `NC(=O)c1ccc(C2CC([C@@H]3CCC[C@H]3C(=O)NCc3ccc(OC(F)(F)F)cc3)=NO2)cc1` (mixture of isomers), the inhibition in data set [1] stood at 0%.

Compound `O=C(NCc1ccc(OC(F)(F)F)cc1)[C@@H]1CCC[C@H]1C1=NOC(c2ccc(OC(F)(F)F)cc2)C1` (mixture of isomers) displayed an IC50 in data set [2] of 500 nM. The compound also showed an inhibition in data set [1] of 93%.

`CC1(c2ccccc2)CC([C@@H]2CCC[C@H]2C(=O)NCc2ccc(OC(F)(F)F)cc2)=NO1` (single isomer, unassigned; diastereomer a) [listing 2 of 2 here]: in [2], half-maximal inhibition (IC50) required 960 nM. Also, the Activity in data set [7] (3 mg/kg) is 53%; in data set [8], 21%.

In data set [1], `O=C(NCc1ccc(OC(F)(F)F)cc1)[C@@H]1CCC[C@H]1c1ncc(-c2ccccc2)o1` (racemic) gave an inhibition of 0%.

`CC1(c2ccccc2)CC([C@@H]2CCC[C@H]2C(=O)NCc2ccccc2)=NO1` (mixture of isomers) registered an inhibition in [1] of 19%.

Take `CC1(c2ccccc2)CC([C@@H]2CCC[C@H]2C(=O)NCc2ccc(OC(F)(F)F)cc2)=NO1` (single isomer, unassigned; diastereomer b) [listing 2 of 2 here]: in data set [7] (3 mg/kg), the Activity turned out to be 26%.

`O=C(NCc1ccc(OC(F)(F)F)cc1)[C@@H]1CCC[C@H]1C1=NOC(c2cccc(Cl)c2)C1` (mixture of isomers) registered a concentration for half-maximal inhibition (IC50) in data set [2] of 480 nM. Moreover, in data set [1], the inhibition was 90%.

In the case of `O=C(NCc1ccc(OC(F)(F)F)cc1)[C@@H]1CCC[C@H]1C1=NC(c2ccc(Cl)cc2)CO1` (mixture of isomers), in data set [2], the IC50 turned out to be 970 nM. Also, the inhibition in [1] stood at 56%.

In turn, `CC1(c2ccccc2)CC([C@@H]2CCC[C@H]2C(=O)NCc2ccc(OC(F)(F)F)cc2)=NO1` (single isomer, unassigned; diastereomer c) [listing 1 of 2 here] registered a 50% inhibitory concentration (IC50) in data set [2] of 1200 nM. Also, the Activity in data set [7] (3 mg/kg) came out at 20%.

In turn, `O=C(NCc1ccc(OC(F)(F)F)cc1)[C@@H]1CCC[C@H]1c1cc(-c2ccc(Cl)cc2)on1` (racemic) had an inhibition in data set [1] of 33%.

For the compound `CC1(c2ccccc2)CC([C@@H]2CCC[C@H]2C(=O)NCc2ccc(Cl)cc2)=NO1` (mixture of isomers), the inhibition in [1] was determined as 15%.

`FC(F)(F)Oc1ccc(C2CC([C@@H]3CCC[C@H]3c3cc(-c4ccccc4)on3)=NO2)cc1` (mixture of isomers) came in with an inhibition in data set [1] of 18%.

In the case of `O=C(O)c1ccc(C2CC([C@@H]3CCC[C@H]3C(=O)NCc3ccc(OC(F)(F)F)cc3)=NO2)cc1` (mixture of isomers), the inhibition in data set [1] worked out at 0%.

Consider `CC(C)Oc1ccc(CNC(=O)[C@@H]2CCC[C@H]2C2=NOC(C)(c3ccccc3)C2)cc1` (mixture of isomers), for which the half-inhibitory concentration (IC50) in data set [2] was 1500 nM.

The compound `CC1(c2ccccc2)CC([C@@H]2CCC[C@H]2C(=O)Nc2ccc3ncccc3c2)=NO1` (mixture of isomers) gave an inhibition in data set [1] of 17%.

As for `c1ccc(-c2cc([C@@H]3CCC[C@H]3C3=NOC(c4ccccc4)C3)no2)cc1` (mixture of isomers), the inhibition in data set [1] is 13%.

As for `CN(Cc1ccc(-c2ccccc2S(N)(=O)=O)cc1)C(=O)[C@@H]1CCC[C@H]1C(=O)NCc1ccc(OC(F)(F)F)cc1` (relative stereo), the half-inhibitory concentration (IC50) in data set [2] stood at 830 nM. In addition, the Activity in data set [7] is 31%; in data set [9], 54%; in data set [8], 35%.

`COC(=O)c1cccc(C2CC([C@@H]3CCC[C@H]3C(=O)NCc3ccc(OC(F)(F)F)cc3)=NO2)c1` (mixture of isomers): the IC50 in [2] worked out at 710 nM. Moreover, in [1], the inhibition was determined as 75%.

Consider `O=C(NCc1ccc(OC(F)(F)F)cc1)[C@@H]1CCC[C@H]1c1cc(-c2ccccc2)on1` (racemic), for which the inhibition in [1] came to 38%.

As to `CC(C)(C)Oc1ccc(CNC(=O)[C@@H]2CCC[C@H]2C2=NOC(C)(c3ccccc3)C2)cc1` (mixture of isomers), in [1], the inhibition came out at 26%.

With `CC1(c2ccccc2)CC([C@@H]2CCC[C@H]2C(=O)Nc2ccc(OC(F)(F)F)cc2)=NO1` (mixture of isomers), the inhibition in data set [1] came out at 30%.

`CC1(c2ccccc2)CC([C@@H]2CCC[C@H]2C(=O)NCc2ccc(C(F)(F)F)cc2)=NO1` (mixture of isomers) yielded a 50% inhibitory concentration (IC50) in data set [2] of 2500 nM.

As for `CC1(c2ccccc2)CC([C@@H]2CCC[C@H]2C(=O)NCc2ccc(OC(F)(F)F)cc2)=NO1` (relative stereo) [listing 2 of 2 here], the Activity in [7] (3 mg/kg) was determined as 31%.

With `CN(Cc1ccc(-c2ccccc2S(C)(=O)=O)cc1)C(=O)[C@@H]1CCC[C@H]1C1=NOC(C)(c2ccccc2)C1` (mixture of isomers), in [1], the inhibition came to 0%.

Turning to `O=C(NCc1ccc(OC(F)(F)F)cc1)[C@@H]1CCC[C@H]1c1nc(-c2ccccc2)co1` (racemic), in [1], the inhibition is 19%.

Take `COc1ccc(CNC(=O)[C@@H]2CCC[C@H]2C2=NOC(C)(c3ccccc3)C2)cc1` (relative stereo): the inhibition in data set [1] was 16%.

Take `CS(=O)(=O)c1ccc(C2CC([C@@H]3CCC[C@H]3C(=O)NCc3ccc(OC(F)(F)F)cc3)=NO2)cc1` (mixture of isomers): the inhibition in data set [1] came to 26%.

Compound `CC1(c2ccccc2)CC([C@@H]2CCC[C@H]2C(=O)NCc2ccc(-c3ccccc3S(C)(=O)=O)cc2)=NO1` (mixture of isomers) returned an inhibition in data set [1] of 0%.

Consider `CS(=O)(=O)c1ccc(C2CC([C@@H]3CCC[C@H]3c3cc(-c4ccccc4)on3)=NO2)cc1` (mixture of isomers), for which the inhibition in data set [1] was found to be 43%.

`CC1(c2ccccc2)CC([C@@H]2CCC[C@H]2C(=O)NCc2ccc(OC(F)(F)F)cc2S(C)(=O)=O)=NO1` (mixture of isomers) showed an inhibition in data set [1] of 13%.

Consider `O=C(NCc1ccc(OC(F)(F)F)cc1)[C@@H]1CCC[C@H]1C1=NOC(CO)(c2ccccc2)C1` (mixture of isomers), for which the inhibition in [1] is 23%.

In the case of `CNC(=O)c1ccc(C2CC([C@@H]3CCC[C@H]3C(=O)NCc3ccc(OC(F)(F)F)cc3)=NO2)cc1` (mixture of isomers), in data set [1], the inhibition was 14%.

Compound `O=C(NCc1ccc(OC(F)(F)F)cc1)[C@@H]1CCC[C@H]1C1=NOC(c2ccccn2)C1` (mixture of isomers) yielded an inhibition in data set [1] of 0%.

`CC1(c2ccccc2)CC([C@@H]2CCC[C@H]2C(=O)NCc2ccc(OC(F)(F)F)cc2)=NO1` (single isomer, unassigned; diastereomer c) [listing 2 of 2 here] returned an inhibition in [1] of 48%.

In turn, `O=C(NCc1ccc(OC(F)(F)F)cc1)[C@@H]1CCC[C@H]1C1=NCC(c2ccccc2)O1` (mixture of isomers) returned a half-inhibitory concentration (IC50) in data set [2] of 620 nM. The inhibition in [1] was 71%.

The values above are taken from ChEMBL document CHEMBL1155971, “Discovery of a novel class of isoxazoline voltage gated sodium channel blockers” (Bioorg Med Chem Lett, 2009).
